Legend:
Format in all cases: biochemical
B-Raf = molecular target: T1, B-Raf (Homo sapiens, UniProt P15056); assay: AlphaScreen kinase assay, B-Raf; settings: read-out: IC50, activity toward kinase B-Raf
T1 construct: purchased Upstate Biotechnology

Yes = molecular target: T2, Yes (Homo sapiens, UniProt P07947); assay: Z'-Lyte FRET kinase assay (Invitrogen), Yes; settings: read-out: IC50, activity toward kinase Yes
T2 construct: purchased Invitrogen (Carlsbad, Calif.), screening service
Text: The effect of potential modulators of kinase activity can be measured in a variety of different assays known in the art. For example, direct radiometric, indirect FRET or AlphaScreen assays may be used to assess the level of phosphorylation of a substrate in the presence of test compounds in order to determine the inhibitory affect of the compound on the kinase. Invitrogen (Carlsbad, Calif.) uses a FRET based assay for Btk, EGFR, EphB2, Flt3, lrak4, Kdr, MAP2K1, MAPKAPK2, PDGFRB, PKC theta, Stk6 and Yes. For these assays, compounds of the invention were screened by Invitrogen using Z′-Lyte™ kinase assay.
Briefly, the Invitrogen kinase assay involves use of a specific peptide substrate optimized for each kinase, containing a fluorophore at each end that make up the FRET pair. The peptide sensitivity to proteolytic cleavage depends on phosphorylation of the peptide. Non-phosphorylated peptide is cleaved by a protease while peptide phosphorylated by the kinase is not cleaved. Cleavage of the peptide disrupts the FRET between the donor (coumarin) and acceptor (fluorescein) fluorophores, resulting in an increase in the ratio of donor emission to acceptor emission. The emission ratio of coumarin to fluorescein is used to assess the reaction progress. The extent of phosphorylation is determined from the emission ratio, which is low when the kinase is active (phosphorylated peptide is not cleaved, FRET pair connected) or higher for inhibited kinase (non-phosphorylated peptide is cleaved, FRET pair separated). Thus, the assay involves a kinase reaction in the presence of varying concentrations of a given compound, a development reaction with site specific protease, and detection of the fluorescent emission ratio of coumarin and fluorscein. […] Reaction conditions for each kinase are determined to provide optimal reaction times, incubation temperature, kinase and ATP concentrations. Test samples are made up in 1× kinase buffer (50 mM HEPES pH 7.5, 50 mM MgCl2, 5 mM EGTA, 0.05% BRIJ-35) and compound at desired concentration prepared in DMSO such that the final DMSO is 1%. […] Typically, assay plates are prepared to 10 μl final volume per sample, adding 2.5 μl of compound at 4× the desired concentration in 4% DMSO (serial dilution of compound provides concentration curve), 5 μl of the desired kinase mixed with Z′-LYTE™ peptide substrate (2× in 2× kinase buffer, final peptide at 2 μM), and 2.5 μl of 4×ATP solution. All kinase except for MAP2K1 were at 10 μM ATP in the kinase reaction, while MAP2K1 was at 100 μM. Samples are mixed and the kinase reaction is incubated 1 hour at room temperature, after which 5 μl of development solution is added and mixed. After incubation for another 1 hour at room temperature, 5 μl of stop reagent is added to each sample and mixed. The fluorescence signals are measured to determine the emission ratio.

Kdr = molecular target: T3, Kdr (Homo sapiens, UniProt P35968); assay: Z'-Lyte FRET kinase assay (Invitrogen), Kdr; settings: read-out: IC50, activity toward kinase Kdr
T3 construct: purchased Invitrogen (assay run by Invitrogen)

Stk6 = molecular target: T4, Stk6 (Homo sapiens, UniProt O14965); assay: Z'-Lyte FRET kinase assay (Invitrogen), Stk6; settings: read-out: IC50, activity toward kinase Stk6
T4 construct: purchased Invitrogen (Carlsbad, Calif.), screening service
T4 sequence (O14965 1-403): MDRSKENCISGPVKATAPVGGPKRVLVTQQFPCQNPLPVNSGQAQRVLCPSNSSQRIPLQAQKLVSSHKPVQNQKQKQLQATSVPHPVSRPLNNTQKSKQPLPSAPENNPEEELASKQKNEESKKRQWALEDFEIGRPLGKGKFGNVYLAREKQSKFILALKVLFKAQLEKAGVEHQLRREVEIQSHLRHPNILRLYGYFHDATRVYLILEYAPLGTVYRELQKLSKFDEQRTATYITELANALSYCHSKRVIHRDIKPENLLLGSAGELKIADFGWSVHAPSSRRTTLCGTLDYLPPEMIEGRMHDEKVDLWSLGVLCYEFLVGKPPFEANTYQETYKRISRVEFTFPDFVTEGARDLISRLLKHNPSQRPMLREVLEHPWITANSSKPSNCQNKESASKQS

Ret = molecular target: T5, Ret (Homo sapiens, UniProt P07949); assay: AlphaScreen kinase assay, Ret; settings: read-out: IC50, activity toward kinase Ret
T5 construct: P1378.pET-SF BI-PTP RET H661-R1012 HIS; made in house
T5 sequence (P07949 with tags, fused parts or gaps): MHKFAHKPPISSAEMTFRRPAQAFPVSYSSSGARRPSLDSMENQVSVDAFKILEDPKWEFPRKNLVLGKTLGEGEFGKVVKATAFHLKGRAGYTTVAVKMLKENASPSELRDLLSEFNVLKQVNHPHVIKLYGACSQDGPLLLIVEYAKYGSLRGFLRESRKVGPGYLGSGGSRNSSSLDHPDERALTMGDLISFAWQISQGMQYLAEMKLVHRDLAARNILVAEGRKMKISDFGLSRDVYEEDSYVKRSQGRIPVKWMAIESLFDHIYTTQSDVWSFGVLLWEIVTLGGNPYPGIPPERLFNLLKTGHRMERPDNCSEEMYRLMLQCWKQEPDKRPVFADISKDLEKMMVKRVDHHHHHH

Pyk2 = molecular target: T6, Pyk2 (Homo sapiens, UniProt Q14289); assay: AlphaScreen kinase assay, Pyk2; settings: read-out: IC50, activity toward kinase Pyk2
T6 construct: purchased Upstate Biotechnology

B-Raf V600E = molecular target: T7, B-Raf V600E (Homo sapiens, UniProt P15056, V600E); assay: AlphaScreen kinase assay, B-Raf V600E; settings: read-out: IC50, activity toward kinase B-Raf V600E
T7 construct: P4254. pFastBacBD-CDC37 BRAF D437-K722-X, V600E; His6 with pFastBac HT leader (TEV site) (N); made in house; host or cells: Sf9 (baculovirus; chaperone CDC37 co-expressed)

FGFR1 = molecular target: T8, FGFR1 (Homo sapiens, UniProt P11362, C488A/C584S); assay: AlphaScreen kinase assay, FGFR1; settings: read-out: IC50, activity toward kinase FGFR
T8 construct: P1351.pET N6 BI-PTP FGFR A458-E765-X C488A, C584S; made in house; host or cells: E. coli (PTP1B co-expressed)

Fms = molecular target: T9, Fms (Homo sapiens, UniProt P07333); assay: AlphaScreen kinase assay, Fms; settings: read-out: IC50, activity toward kinase Fms
T9 construct: purchased Upstate Biotechnology

c-Raf-1 = molecular target: T10, c-Raf-1 (Homo sapiens, UniProt P04049); assay: AlphaScreen kinase assay, c-Raf-1; settings: read-out: IC50, activity toward kinase c-Raf-1
T10 construct: purchased Upstate Biotechnology

Fak = molecular target: T11, Fak (Homo sapiens, UniProt Q05397); assay: AlphaScreen kinase assay, Fak; settings: read-out: IC50, activity toward kinase Fak
T11 construct: P1358.pFastBacHtb FAK S411-Q686-X; His6 with pFastBacHTb leader (TEV site) (N); made in house; host or cells: Sf9 (baculovirus)

Src = molecular target: T12, Src (Homo sapiens, UniProt P12931); assay: AlphaScreen kinase assay, Src; settings: read-out: IC50, activity toward kinase Src
T12 construct: P1144. pET-N6 BI-PTP SRC V86-L536-X; made in house
Procedure: AlphaScreen assays were done using compounds dissolved in DMSO to a concentration of 20 mM. The compounds were diluted accordingly to the desired final concentrations in each sample well, using 1:3 serial dilution for a total of 8 concentration points. Plates were prepared such that each kinase reaction is 20 μl in 1× kinase buffer, 5% DMSO and 10 μM ATP. After incubation of the kinase reaction for 1 hour at room temperature, 5 μl of donor beads in stop buffer (50 mM EDTA in 1× kinase buffer) was added, the sample was mixed and incubated for 20 minutes at room temperature before adding 5 μl of acceptor beads in stop buffer. The samples were incubated for 60 minutes at room temperature and the signal per well was read on AlphaQuest reader.

Kit = molecular target: T13, Kit (Homo sapiens, UniProt P10721); assay: AlphaScreen kinase assay, Kit; settings: read-out: IC50, activity toward kinase Kit
T13 construct: P1332.N6 BI PTP KIT M552-K948-X COD; His6 (N); made in house; host or cells: E. coli (PTP1B co-expressed)

Zap70 = molecular target: T14, Zap70 (Homo sapiens, UniProt P43403); assay: AlphaScreen kinase assay, Zap70; settings: read-out: IC50, activity toward kinase Zap70
T14 construct: P1868.pFastBac1 ZAP70 D327-G606 HIS, WT; His7 (HHHHHHH) (C); made in house
T14 sequence (P43403 with tags, fused parts or gaps): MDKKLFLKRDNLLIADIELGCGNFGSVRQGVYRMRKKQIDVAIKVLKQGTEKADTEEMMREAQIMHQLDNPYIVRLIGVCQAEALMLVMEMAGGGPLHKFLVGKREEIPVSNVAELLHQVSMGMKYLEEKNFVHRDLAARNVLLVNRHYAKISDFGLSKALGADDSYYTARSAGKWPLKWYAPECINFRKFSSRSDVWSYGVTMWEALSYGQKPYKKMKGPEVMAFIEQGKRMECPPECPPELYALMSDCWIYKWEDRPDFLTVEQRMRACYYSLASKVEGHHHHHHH
Text: AlphaScreen assay was used to screen additional kinases. The assay is similarly dependent on the phosphorylation of a peptide substrate. In this assay, an antibody that recognizes phosphorylated substrate is bound to an acceptor bead. The peptide substrate is attached to biotin, which binds to a donor head that contains streptavidin. Thus phosphorylated substrate is bound by antibody and streptavidin, bringing the donor and acceptor heads into close proximity when kinase is not inhibited. The donor produces singlet oxygen which results in emission from the acceptor when they are in close proximity. Conversely, when kinase is inhibited, the donor and acceptor beads are not associated and the emission from the acceptor is reduced.
AlphaScreen assays were done using compounds dissolved in DMSO to a concentration of 20 mM. The compounds were diluted accordingly to the desired final concentrations in each sample well, using 1:3 serial dilution for a total of 8 concentration points.

Measured: IC50

T10 sequence (P04049 whole entry): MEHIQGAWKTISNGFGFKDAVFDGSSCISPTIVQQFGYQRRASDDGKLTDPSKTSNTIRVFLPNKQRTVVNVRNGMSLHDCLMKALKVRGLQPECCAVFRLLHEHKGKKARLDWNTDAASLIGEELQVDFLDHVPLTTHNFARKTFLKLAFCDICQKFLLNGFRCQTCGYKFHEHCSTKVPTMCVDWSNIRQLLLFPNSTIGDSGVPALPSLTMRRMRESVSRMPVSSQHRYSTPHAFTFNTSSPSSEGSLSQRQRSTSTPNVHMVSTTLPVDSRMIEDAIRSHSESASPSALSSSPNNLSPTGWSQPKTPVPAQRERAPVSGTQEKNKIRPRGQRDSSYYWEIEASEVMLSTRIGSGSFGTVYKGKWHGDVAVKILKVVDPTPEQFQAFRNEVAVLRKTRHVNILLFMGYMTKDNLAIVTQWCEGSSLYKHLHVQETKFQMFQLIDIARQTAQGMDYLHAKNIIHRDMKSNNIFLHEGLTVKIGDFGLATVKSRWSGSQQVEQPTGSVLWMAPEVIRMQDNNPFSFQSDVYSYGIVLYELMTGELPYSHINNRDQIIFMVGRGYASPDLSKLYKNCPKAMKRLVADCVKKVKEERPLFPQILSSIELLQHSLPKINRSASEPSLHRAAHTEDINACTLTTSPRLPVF
T3 sequence (P35968 20-1356): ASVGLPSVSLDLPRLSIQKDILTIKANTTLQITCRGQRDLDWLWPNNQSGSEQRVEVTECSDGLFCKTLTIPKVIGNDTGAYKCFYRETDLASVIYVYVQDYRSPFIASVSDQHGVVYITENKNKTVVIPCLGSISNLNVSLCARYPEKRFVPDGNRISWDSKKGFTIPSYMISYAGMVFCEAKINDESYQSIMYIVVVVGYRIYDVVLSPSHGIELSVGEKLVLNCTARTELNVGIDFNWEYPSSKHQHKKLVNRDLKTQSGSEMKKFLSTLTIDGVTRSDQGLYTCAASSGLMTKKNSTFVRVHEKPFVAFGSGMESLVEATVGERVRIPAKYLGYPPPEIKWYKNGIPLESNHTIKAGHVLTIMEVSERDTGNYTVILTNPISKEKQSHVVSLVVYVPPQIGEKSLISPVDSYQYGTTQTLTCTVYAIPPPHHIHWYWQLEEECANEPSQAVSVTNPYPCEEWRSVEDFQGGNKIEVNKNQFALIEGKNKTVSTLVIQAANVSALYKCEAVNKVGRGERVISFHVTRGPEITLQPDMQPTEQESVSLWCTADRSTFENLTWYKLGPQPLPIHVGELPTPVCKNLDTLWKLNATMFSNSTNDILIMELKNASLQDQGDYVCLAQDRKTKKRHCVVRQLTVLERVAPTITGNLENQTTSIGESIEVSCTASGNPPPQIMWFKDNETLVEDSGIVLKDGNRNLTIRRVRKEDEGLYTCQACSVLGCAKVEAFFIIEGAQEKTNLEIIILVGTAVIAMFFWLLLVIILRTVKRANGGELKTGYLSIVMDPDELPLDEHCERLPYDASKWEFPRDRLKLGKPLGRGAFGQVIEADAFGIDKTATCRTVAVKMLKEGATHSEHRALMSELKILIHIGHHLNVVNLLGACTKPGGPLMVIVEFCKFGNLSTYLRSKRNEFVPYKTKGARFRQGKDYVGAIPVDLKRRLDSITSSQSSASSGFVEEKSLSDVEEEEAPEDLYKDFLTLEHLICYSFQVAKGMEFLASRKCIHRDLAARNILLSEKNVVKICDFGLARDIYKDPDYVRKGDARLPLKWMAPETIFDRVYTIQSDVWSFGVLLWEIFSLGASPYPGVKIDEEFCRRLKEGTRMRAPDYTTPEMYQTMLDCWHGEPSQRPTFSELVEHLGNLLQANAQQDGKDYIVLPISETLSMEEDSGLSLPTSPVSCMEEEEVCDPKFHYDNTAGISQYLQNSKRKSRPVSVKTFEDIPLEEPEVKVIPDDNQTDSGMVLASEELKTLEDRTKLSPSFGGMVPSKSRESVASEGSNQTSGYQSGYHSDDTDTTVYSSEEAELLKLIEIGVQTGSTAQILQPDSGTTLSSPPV
T9 sequence (P07333 20-972): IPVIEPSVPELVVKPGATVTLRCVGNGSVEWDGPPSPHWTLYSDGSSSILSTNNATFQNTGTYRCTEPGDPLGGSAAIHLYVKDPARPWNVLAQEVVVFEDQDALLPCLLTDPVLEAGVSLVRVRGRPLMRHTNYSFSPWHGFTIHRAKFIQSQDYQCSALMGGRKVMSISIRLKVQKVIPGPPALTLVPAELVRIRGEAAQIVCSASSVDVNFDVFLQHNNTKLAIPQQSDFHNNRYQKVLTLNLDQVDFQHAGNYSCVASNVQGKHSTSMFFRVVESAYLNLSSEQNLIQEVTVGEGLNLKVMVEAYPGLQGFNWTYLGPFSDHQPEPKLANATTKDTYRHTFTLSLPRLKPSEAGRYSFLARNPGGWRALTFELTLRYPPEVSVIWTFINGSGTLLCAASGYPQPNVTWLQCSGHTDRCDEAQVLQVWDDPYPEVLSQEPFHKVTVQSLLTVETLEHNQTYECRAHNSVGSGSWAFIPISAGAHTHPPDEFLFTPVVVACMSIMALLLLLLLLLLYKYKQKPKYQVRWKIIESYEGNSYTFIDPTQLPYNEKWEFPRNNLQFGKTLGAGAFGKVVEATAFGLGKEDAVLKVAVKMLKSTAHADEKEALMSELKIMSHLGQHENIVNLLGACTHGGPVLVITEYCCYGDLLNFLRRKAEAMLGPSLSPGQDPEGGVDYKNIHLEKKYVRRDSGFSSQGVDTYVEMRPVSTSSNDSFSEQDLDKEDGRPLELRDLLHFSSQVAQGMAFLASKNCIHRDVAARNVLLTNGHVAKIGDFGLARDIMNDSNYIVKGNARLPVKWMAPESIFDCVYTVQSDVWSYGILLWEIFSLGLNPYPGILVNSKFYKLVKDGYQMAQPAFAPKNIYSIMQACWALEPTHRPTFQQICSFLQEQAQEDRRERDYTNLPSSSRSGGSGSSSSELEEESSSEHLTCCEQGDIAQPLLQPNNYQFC
T7 sequence (P15056 with tags, fused parts or gaps V600E): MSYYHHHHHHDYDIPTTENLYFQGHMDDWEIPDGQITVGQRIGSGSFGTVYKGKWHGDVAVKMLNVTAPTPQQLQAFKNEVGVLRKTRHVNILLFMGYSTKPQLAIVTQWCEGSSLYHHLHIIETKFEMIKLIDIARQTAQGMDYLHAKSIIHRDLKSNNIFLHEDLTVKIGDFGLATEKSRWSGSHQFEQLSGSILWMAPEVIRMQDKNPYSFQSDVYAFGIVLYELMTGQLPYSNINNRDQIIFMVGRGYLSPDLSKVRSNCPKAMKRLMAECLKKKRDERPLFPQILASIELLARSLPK
T1 sequence (P15056 whole entry): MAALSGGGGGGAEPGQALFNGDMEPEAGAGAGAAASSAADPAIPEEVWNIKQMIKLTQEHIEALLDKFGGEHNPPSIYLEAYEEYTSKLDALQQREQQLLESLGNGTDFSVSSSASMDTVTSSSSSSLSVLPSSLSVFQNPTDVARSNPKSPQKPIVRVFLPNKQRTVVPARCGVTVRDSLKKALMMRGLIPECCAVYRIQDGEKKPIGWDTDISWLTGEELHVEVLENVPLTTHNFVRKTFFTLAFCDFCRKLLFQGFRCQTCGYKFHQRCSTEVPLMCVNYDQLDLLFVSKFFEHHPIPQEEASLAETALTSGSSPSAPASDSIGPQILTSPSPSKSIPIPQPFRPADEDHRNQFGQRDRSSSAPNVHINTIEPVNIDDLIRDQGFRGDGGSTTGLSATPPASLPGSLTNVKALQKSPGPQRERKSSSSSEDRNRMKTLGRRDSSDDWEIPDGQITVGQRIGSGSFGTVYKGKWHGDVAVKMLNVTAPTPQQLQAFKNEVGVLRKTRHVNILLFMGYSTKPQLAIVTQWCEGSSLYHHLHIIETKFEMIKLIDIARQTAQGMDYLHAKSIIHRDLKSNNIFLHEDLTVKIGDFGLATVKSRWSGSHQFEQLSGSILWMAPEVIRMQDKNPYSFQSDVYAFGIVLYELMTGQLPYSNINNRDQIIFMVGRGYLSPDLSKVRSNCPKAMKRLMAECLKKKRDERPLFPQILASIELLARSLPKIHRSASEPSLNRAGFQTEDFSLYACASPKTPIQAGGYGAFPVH
T2 sequence (P07947 whole entry): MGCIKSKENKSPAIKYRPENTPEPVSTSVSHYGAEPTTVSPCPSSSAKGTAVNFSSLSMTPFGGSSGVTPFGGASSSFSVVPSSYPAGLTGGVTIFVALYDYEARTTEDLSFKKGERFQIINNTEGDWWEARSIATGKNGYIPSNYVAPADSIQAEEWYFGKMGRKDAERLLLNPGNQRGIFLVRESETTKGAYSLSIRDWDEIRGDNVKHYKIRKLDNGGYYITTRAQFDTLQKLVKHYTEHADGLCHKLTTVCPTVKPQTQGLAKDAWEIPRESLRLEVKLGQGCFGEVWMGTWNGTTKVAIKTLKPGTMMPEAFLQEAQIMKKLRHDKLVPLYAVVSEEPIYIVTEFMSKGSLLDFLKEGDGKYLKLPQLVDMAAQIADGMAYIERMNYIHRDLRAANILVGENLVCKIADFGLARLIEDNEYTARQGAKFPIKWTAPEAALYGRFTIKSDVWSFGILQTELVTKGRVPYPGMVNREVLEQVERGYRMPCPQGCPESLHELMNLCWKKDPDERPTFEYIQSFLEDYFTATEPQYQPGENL
T12 sequence (P12931 with tags, fused parts or gaps): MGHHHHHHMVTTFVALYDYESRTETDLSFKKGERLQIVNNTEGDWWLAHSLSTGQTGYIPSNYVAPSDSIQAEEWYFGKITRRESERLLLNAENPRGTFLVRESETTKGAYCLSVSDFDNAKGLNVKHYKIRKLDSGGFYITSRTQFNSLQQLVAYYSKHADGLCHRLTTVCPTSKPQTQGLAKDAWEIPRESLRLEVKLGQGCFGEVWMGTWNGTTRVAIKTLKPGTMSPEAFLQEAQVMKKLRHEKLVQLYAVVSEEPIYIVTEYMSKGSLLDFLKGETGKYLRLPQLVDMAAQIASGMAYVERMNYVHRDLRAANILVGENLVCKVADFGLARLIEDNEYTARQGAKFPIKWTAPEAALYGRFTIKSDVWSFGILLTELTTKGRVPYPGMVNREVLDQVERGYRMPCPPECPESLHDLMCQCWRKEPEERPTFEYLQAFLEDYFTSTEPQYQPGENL

COC(=O)Nc1ccc(F)c(C(O)c2c[nH]c3ncc(-c4cccnc4)cc23)c1F (centres unmarked) [Compound P-0065, {2,4-difluoro-3-[hydroxy-(5-pyridin-3-yl-1H-pyrrolo[2,3b]pyridin-3-yl)-methyl]-phenyl}-carbamic acid methyl ester]
≤ 10 µM: B-Raf | Yes | Kdr | Stk6 | Ret

O=C(Nc1ccc(F)c(C(O)c2c[nH]c3ncc(-c4cccnc4)cc23)c1F)OCc1ccccc1 (centres unmarked) [Compound P-0095, {2,4-Difluoro-3-[hydroxy-(5-pyridin-3-yl-1H-pyrrolo[2,3b]pyridin-3-yl)-methyl]-phenyl}-carbamic acid benzyl ester]
≤ 10 µM: Pyk2 | B-Raf | Yes | B-Raf V600E | Ret

c1csc(CNc2ccc(Cc3c[nH]c4ncccc34)cn2)c1 [Compound P-0129]
≤ 10 µM: Yes | FGFR1 | Fms | Kdr | B-Raf V600E | Stk6

COc1ccc(-c2cnc3[nH]cc(C#Cc4ccccc4)c3c2)cc1OC [Compound P-0153]
≤ 10 µM: Yes | B-Raf V600E | Stk6

CS(=O)(=O)Nc1ccc(F)c(C(=O)c2c[nH]c3ncc(Br)cc23)c1F [Compound P-0162, N-[3-(5-Bromo-1H-pyrrolo[2,3-b]pyridine-3-carbonyl)-2,4-difluoro-phenyl]-methanesulfonamide]
≤ 10 µM: B-Raf | Yes | c-Raf-1 | Kdr | B-Raf V600E | Stk6

CCCS(=O)(=O)Nc1ccc(F)c(C(O)c2c[nH]c3ncc(Br)cc23)c1F (centres unmarked) [Compound P-0188, Propane-1-sulfonic acid {3-[(5-bromo-1H-pyrrolo[2,3-b]pyridin-3-yl)-hydroxy-methyl]-2,4-difluoro-phenyl}-amide]
≤ 10 µM: Pyk2 | B-Raf | Yes | c-Raf-1 | B-Raf V600E | Stk6

COc1cccc(-c2ccc3c(CNS(=O)(=O)c4ccc(C)cc4)c[nH]c3n2)c1 [Compound P-0209]
≤ 10 µM: Fak | Yes | Src

CS(=O)(=O)Nc1ccc(F)c(C(=O)c2c[nH]c3ncc(-c4cccc(S(C)(=O)=O)c4)cc23)c1F [Compound P-0210]
not listed: Kdr | Stk6 | Pyk2 | Zap70
≤ 10 µM: all other assays above

O=C(c1ccc(NCc2cccs2)nc1)c1c[nH]c2ncccc12 [Compound P-0237]
≤ 10 µM: Yes | Fms | Src | B-Raf V600E | Stk6

O=C(c1ccccc1)c1c[nH]c2c1cc(Br)c[n+]2[O-] [Compound P-0275]
≤ 10 µM: Zap70

C(=C\c1c[nH]c2ncccc12)/c1ccc(NCc2ccccc2)cc1 [Compound P-0283]
≤ 10 µM: Yes | Stk6

Clc1ccnc2[nH]ccc12 [Compound P-0342]
≤ 10 µM: Zap70

Source: US8415469B2, “Compounds and methods for kinase modulation, and indications therefor” (Plexxikon Inc., priority 2005, dated 2013)
